Several values for one entry are separate records, joined by “and”; a condition that tells them apart may be missing. Equal values may be shown once. Where a name gives a salt, the structure may show the parent alone.
System: DOPAC release in the rat prefrontal cortex
Assay: Microdialysis: DOPAC release in prefrontal cortex after I.P. administration
Format: in vivo
Conditions: for DOPAC (% of respective basal), individual animal: 0.1 mg/kg I.P., c2-c9 = R#13,14,20,19,25,26,31,32; for DOPAC (% of respective basal), individual animal / DOPAC release, individual animals: hydrochloride; for DOPAC release, MEAN / DOPAC release, individual animals: 3 mg/kg IP; for DOPAC release, MEAN: n = 8; for DOPAC release, individual animals: per animal R#15,16,21,22,27,28,09,10
Protocol: The aim of the study was to evaluate, using microdialysis, the effects of an intraperitoneal (I.P.) administration in rats of three different doses of SON-117 on dopamine and its metabolites, serotonin and its metabolite (5-HIAA), and norepinephrine levels in prefrontal cortex.
Thirty-two adult male Wistar rats were used for the whole study (4 groups of eight animals planned for the study, Table 1).
Surgery was performed on rats weighing about 300 g at the beginning of the experiments. Rats were anaesthetized with Ketamine (50 mg/kg) & Xylazine (15 mg/kg) by intramuscular administration. The animals were placed in a stereotaxic apparatus in the flat-skull position at a constant setting of −3.3 mm between ear bars and the incisor bar. The animals were treated with a local anesthesic (xylocaine 1%, Astra Zeneca) and an analgesic (Temgesic, from Schering Plough, 0.05 mg/kg, s.c.). A rostrocaudal midline incision was made with a lancet to expose the dorsal skull surface. The “stereotaxic zero” was defined by the Bregma in accordance with Paxinos and Watson's atlas (1986). A hole was drilled in the skull with a drill and the meninges were pierced with a sterile needle to implant a CMA12 guide cannula which later received the dialysis probe.
Coordinates used for implanting guide cannula in prefrontal cortex from Bregma were anteroposterior 3.7 mm, mediolateral 0.8 mm, and dorsoventral −2 mm (top of the probe was at −5 mm). The guide cannula was fixed to the skull with two stainless steel screws (1.88 mm outside diameter) anchored. An application of dental cement was added. A plastic collar allowed each animal to be tethered to a Swivel assembly of the CMA 120 awake animal system. Following surgery, rats were kept in individual cages and allowed to recover for a minimum of 3-5 days before the experimentation. The rats were handled and put in plastic bowl for 10 min at least every day to habituate the animals to their new environment for the dialysis. An I.P. administration with saline was also performed every day.
Dialysis probes (CMA12/3 mm, membrane, 20 kD cut-off, Carnegie Medicine, Stockholm, Sweden), were carefully washed before inserting into the guide cannula. The wash was performed with the artificial cerebrospinal fluid (aCSF) medium (NaCl 147 mM, KCl 2.7 mM, CaCl2 1.2 mM, MgCl2 0.85 mM) at room temperature. The dialysis system was then equilibrated at 20° C. at a perfusion rate of 1 μl/min with a Carnegie pump (CMA100). All catheters (FEP tubing, internal volume of 1.2 μl/10 cm, and tubing adaptors) used for microdialysis were treated in the same conditions.
The probes duly prepared were inserted into the guide cannula and the CMA120 Swivel assembly secured to the animal using a plastic collar. Flow through the dialysis probe with aCSF was maintained at a rate of 1 μl/min during the whole experimentation. The first four fractions (corresponding to 2 hours) were discarded to avoid the effects of parenchymal disturbance and to ensure that an approximate steady-state level was reached. Fractions were then collected over a period of 8.5 h during which time the animals remained quiet. The dialysates were automatically collected with an autosampler (microfraction collector CMA 140, Carnegie Medicin) and stored at −80° C. until analysis. […] Perfusion was then maintained for 7 hours with aCSF. The dialysates (30 μl) were collected into 300 μl vials, transferred into dry ice and then kept frozen (−80° C.) until analysis. Frozen samples were shipped to a partner for analysis. At the end of the microdialysis study, a PBS with colored ink was perfused through the probe in order to visualize the dialyzed area.
Catecholamine assay: Concentrations of dopamine, DOPAC, HVA, 5-HIAA, 5-HT, and norepinephrin were determined for each sample by HPLC coupled with electrochemical detection.

## Cc1nnc(-c2cc3c(OC[C@@H](O)CN4CCC(c5ccc(Cl)c(Cl)c5)CC4)cccc3o2)o1 [SON-117, (S)-1-(4-(3,4-dichlorophenyl)piperidino)-3-(2-(5-methyl-1,3,4-oxadiazol-2-yl)benzo(b)furan-4-yloxy)-2-propanol hydrochloride]
T30-T1 h
  DOPAC (% of respective basal), individual animal: 90.11 % of respective basal and 105.88 % of respective basal and 110.45 % of respective basal and 113.21 % of respective basal and 95.59 % of respective basal and 110.39 % of respective basal and 128.2 % of respective basal and 82.35 % of respective basal
  DOPAC release, MEAN: 90.03 % of respective basal
  DOPAC release, individual animals: 101.17 % of respective basal and 98.27 % of respective basal and 70.16 % of respective basal and 93.38 % of respective basal and 83.10 % of respective basal and 96.90 % of respective basal and 90.68 % of respective basal and 86.57 % of respective basal
T1 h 30-T2 h
  DOPAC (% of respective basal), individual animal: 101.64 % of respective basal and 109.71 % of respective basal and 83.87 % of respective basal and 449.73 % of respective basal and 128.96 % of respective basal and 72.88 % of respective basal and 153.26 % of respective basal and 56.49 % of respective basal
  DOPAC release, MEAN: 109.73 % of respective basal
  DOPAC release, individual animals: 148.73 % of respective basal and 196.92 % of respective basal and 78.99 % of respective basal and 114.35 % of respective basal and 65.05 % of respective basal and 98.86 % of respective basal and 85.04 % of respective basal and 87.02 % of respective basal
T1 h-T1 h 30
  DOPAC (% of respective basal), individual animal: 79.47 % of respective basal and 158.61 % of respective basal and 92.14 % of respective basal and 126.98 % of respective basal and 119.92 % of respective basal and 119.37 % of respective basal and 135.5 % of respective basal and 66.42 % of respective basal
  DOPAC release, MEAN: 107.74 % of respective basal
  DOPAC release, individual animals: 183.03 % of respective basal and 117.43 % of respective basal and 106.09 % of respective basal and 101.67 % of respective basal and 88.00 % of respective basal and 90.78 % of respective basal and 85.51 % of respective basal and 89.44 % of respective basal
T2 h 30-T3 h
  DOPAC (% of respective basal), individual animal: 60.75 % of respective basal and 112.82 % of respective basal and 69.17 % of respective basal and 79.31 % of respective basal and 152.5 % of respective basal and 113.62 % of respective basal and 142.16 % of respective basal and 23.28 % of respective basal
  DOPAC release, MEAN: 92.73 % of respective basal
  DOPAC release, individual animals: 122.00 % of respective basal and 99.60 % of respective basal and 70.87 % of respective basal and 93.90 % of respective basal and 65.07 % of respective basal and 108.76 % of respective basal and 94.51 % of respective basal and 87.10 % of respective basal
T2 h-T2 h 30
  DOPAC (% of respective basal), individual animal: 176.59 % of respective basal and 43.90 % of respective basal and 80.18 % of respective basal and 123.61 % of respective basal and 132.53 % of respective basal and 78.83 % of respective basal and 142.03 % of respective basal and 39.56 % of respective basal
  DOPAC release, MEAN: 95.46 % of respective basal
  DOPAC release, individual animals: 111.98 % of respective basal and 121.35 % of respective basal and 63.44 % of respective basal and 89.04 % of respective basal and 75.53 % of respective basal and 92.91 % of respective basal and 122.88 % of respective basal and 86.52 % of respective basal
T3 h 30-T4 h
  DOPAC (% of respective basal), individual animal: 53.09 % of respective basal and 116.09 % of respective basal and 68.59 % of respective basal and 73.49 % of respective basal and 180.72 % of respective basal and 107.13 % of respective basal and 128.91 % of respective basal and 40.67 % of respective basal
  DOPAC release, MEAN: 94.20 % of respective basal
  DOPAC release, individual animals: 111.27 % of respective basal and 111.84 % of respective basal and 80.10 % of respective basal and 101.37 % of respective basal and 69.94 % of respective basal and 101.03 % of respective basal and 82.44 % of respective basal and 95.58 % of respective basal
T3 h-T3 h 30
  DOPAC (% of respective basal), individual animal: 80.45 % of respective basal and 87.7 % of respective basal and 65.69 % of respective basal and 75.20 % of respective basal and 134.32 % of respective basal and 93.13 % of respective basal and 140.15 % of respective basal and 50.88 % of respective basal
  DOPAC release, MEAN: 102.63 % of respective basal
  DOPAC release, individual animals: 114.26 % of respective basal and 115.76 % of respective basal and 98.98 % of respective basal and 103.32 % of respective basal and 65.78 % of respective basal and 96.52 % of respective basal and 80.53 % of respective basal and 145.86 % of respective basal
T4 h 30-T5 h
  DOPAC (% of respective basal), individual animal: 304.57 % of respective basal and 95.87 % of respective basal and 47.53 % of respective basal and 20.13 % of respective basal and 163.90 % of respective basal and 118.96 % of respective basal and 157.11 % of respective basal and 54.52 % of respective basal
  DOPAC release, MEAN: 90.86 % of respective basal
  DOPAC release, individual animals: 99.05 % of respective basal and 111.45 % of respective basal and 86.88 % of respective basal and 84.18 % of respective basal and 65.99 % of respective basal and 114.07 % of respective basal and 88.90 % of respective basal and 76.33 % of respective basal
T4 h-T4 h 30
  DOPAC (% of respective basal), individual animal: 345.4 % of respective basal and 109.04 % of respective basal and 79.96 % of respective basal and 110.35 % of respective basal and 164.47 % of respective basal and 110.81 % of respective basal and 148.54 % of respective basal and 71.60 % of respective basal
  DOPAC release, MEAN: 97.50 % of respective basal
  DOPAC release, individual animals: 114.70 % of respective basal and 111.85 % of respective basal and 76.78 % of respective basal and 121.97 % of respective basal and 69.65 % of respective basal and 96.91 % of respective basal and 88.65 % of respective basal and 99.52 % of respective basal
T5 h 30-T6 h
  DOPAC (% of respective basal), individual animal: 316.35 % of respective basal and 107.67 % of respective basal and 58.65 % of respective basal and 83.02 % of respective basal and 133.93 % of respective basal and 99.81 % of respective basal and 135.88 % of respective basal and 46.79 % of respective basal
  DOPAC release, MEAN: 93.52 % of respective basal
  DOPAC release, individual animals: 100.08 % of respective basal and 108.82 % of respective basal and 106.21 % of respective basal and 79.12 % of respective basal and 64.79 % of respective basal and 94.19 % of respective basal and 96.33 % of respective basal and 96.49 % of respective basal
T5 h-T5 h 30
  DOPAC (% of respective basal), individual animal: 342.56 % of respective basal and 121.60 % of respective basal and 61.68 % of respective basal and 79.4 % of respective basal and 139.09 % of respective basal and 96.46 % of respective basal and 144.84 % of respective basal and 50.64 % of respective basal
  DOPAC release, MEAN: 105.66 % of respective basal
  DOPAC release, individual animals: 96.11 % of respective basal and 118.05 % of respective basal and 106.17 % of respective basal and 90.70 % of respective basal and 68.08 % of respective basal and 136.44 % of respective basal and 128.39 % of respective basal and 101.33 % of respective basal
T6 h 30-T7 h
  DOPAC (% of respective basal), individual animal: 344.74 % of respective basal and 120.8 % of respective basal and 139.44 % of respective basal and 80.52 % of respective basal
  DOPAC release, MEAN: 101.08 % of respective basal
  DOPAC release, individual animals: 100.91 % of respective basal and 128.07 % of respective basal and 103.29 % of respective basal and 98.33 % of respective basal and 67.98 % of respective basal
T6 h-T6 h 30
  DOPAC (% of respective basal), individual animal: 362.18 % of respective basal and 142.01 % of respective basal and 23.55 % of respective basal and 82.92 % of respective basal and 136.09 % of respective basal and 101.05 % of respective basal and 125.76 % of respective basal and 48.95 % of respective basal
  DOPAC release, MEAN: 97.93 % of respective basal
  DOPAC release, individual animals: 89.69 % of respective basal and 125.97 % of respective basal and 108.08 % of respective basal and 99.61 % of respective basal and 70.30 % of respective basal and 104.34 % of respective basal and 87.50 % of respective basal
T0-T30 min
  DOPAC release, MEAN: 87.96 % of respective basal
T-30 min-T0 (before administration)
  DOPAC release, MEAN: 94.88 % of respective basal

Reference: US20250109127A1, “METHODS OF USE OF PHENOXYPROPYLAMINE COMPOUNDS TO TREAT DEPRESSION” (Minerva Neurosciences, Inc., priority 2013, published 2025)
